According to patent publication US9012036B2, “Organometallic complex, composition and light emitting element including the organometallic complex” (Semiconductor Energy Laboratory Co., Ltd., priority 2007, dated 2015):

Key:
[1] = solubility test in various solvents; type: physicochemical; conditions: for solubility in dimethylformamide (DMF) / solubility x, Solvents not having aromatic ring DMF: solvent DMF; for solubility in chloroform / solubility x, Solvents not having aromatic ring chloroform: solvent chloroform; for solubility in dioxane / solubility x, Ethers dioxane: solvent dioxane; for solubility in toluene / solubility x, sovents having aromatic ring toluene: solvent toluene
Description: In this Example, the solubility of an organometallic complex including a pyrazine skeleton described in Embodiment Mode 1 was measured. The measurement was performed by examining the solubility in various solvents: 2-ethoxyethanol, isopropanol, and ethanol, which are alcohols; dioxane, which is ether; chloroform and dimethylformamide (DMF), which are an organic solvent not including an aromatic ring; and toluene, which is an aromatic hydrocarbon-based solvent.
Among the complexes disclosed in Embodiment Mode 1, [Ir(tppr)2(dpm)] represented by the structural formula (147), which was synthesized in Example 1, is selected as a measurement object. The solubility was investigated. […]

[2] = decomposition temperature by differential thermal balance (TG-DTA); type: physicochemical; conditions: temperature increase rate 10° C./min, normal atmospheric pressure
Description: The decomposition temperature of the obtained organometallic complex of the present invention, [Ir(tppr)2(dpm)], was measured with a high vacuum differential type differential thermal balance (TG-DTA2410SA, manufactured by Bruker AXS K.K.). The temperature increase rate was 10° C./min, and the temperature was increased under normal atmospheric pressure.

solubility in dimethylformamide (DMF) [1] [µg/mL] | solubility x, Solvents not having aromatic ring DMF [1] | solubility in chloroform [1] [µg/mL] | solubility x, Solvents not having aromatic ring chloroform [1] | solubility in dioxane [1] [µg/mL] | solubility x, Ethers dioxane [1] | solubility in toluene [1] [µg/mL] | solubility x, sovents having aromatic ring toluene [1] | decomposition temperature (reduction in weight by 5%) [2] [°C] | solubility x, Alcohols 2-ethoxyethanol ([1]; solvent 2-ethoxyethanol) | solubility in ethanol ([1]; solvent ethanol) [µg/mL] | solubility x, Alcohols ethanol ([1]; solvent ethanol) | solubility in isopropanol ([1]; solvent isopropanol) [µg/mL] | solubility x, Alcohols isopropanol ([1]; solvent isopropanol) | Substance
≥ 1200 | ⊚ (x ≧ 1.2) | ≥ 1200 | ⊚ (x ≧ 1.2) | ≥ 1200 | ⊚ (x ≧ 1.2) | ≥ 1200 | ⊚ (x ≧ 1.2) |  |  |  |  |  |  | bis(2,3,5-triphenylpyrazinato)(pivaloyltrifluoroacetonato)iridium(III) [Ir(tppr)2(pFac)]
≥ 1200 | ⊚ (x ≧ 1.2) | ≥ 1200 | ⊚ (x ≧ 1.2) | ≥ 1200 | ⊚ (x ≧ 1.2) | ≥ 600 | Δ (0.9 > x ≧ 0.6) | 327 | ⊚ (x ≧ 1.2) | ≥ 600 | Δ (0.9 > x ≧ 0.6) | ≥ 600 | Δ (0.9 > x ≧ 0.6) | bis(2,3,5-triphenylpyrazinato)(dipivaloylmethanato)iridium(III) [Ir(tppr)2(dpm)]
